Structures are written as SMILES. Read-outs that look alike come from different tables or passages of the source.

This test concerns the target T1, human GnRH receptor (Homo sapiens, UniProt P30968).
T1 construct: The cDNA for the human GnRH receptor is cloned into the plasmid expression vector, pcDNA 3; expressed in transfected cells; host or cells: HEK 293 cells, stably transfected (pcDNA 3); membrane preparation
T1 sequence (P30968 1-328): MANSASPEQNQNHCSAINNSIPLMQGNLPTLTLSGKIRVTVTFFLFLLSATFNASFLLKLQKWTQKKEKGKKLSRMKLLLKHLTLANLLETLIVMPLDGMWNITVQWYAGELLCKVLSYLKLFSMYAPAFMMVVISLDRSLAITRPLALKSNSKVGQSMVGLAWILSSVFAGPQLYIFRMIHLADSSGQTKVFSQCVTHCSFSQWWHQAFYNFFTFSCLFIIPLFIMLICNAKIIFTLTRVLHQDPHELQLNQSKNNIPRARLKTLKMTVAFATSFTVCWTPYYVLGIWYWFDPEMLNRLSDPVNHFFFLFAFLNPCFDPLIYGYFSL
In words: GnRH receptor competitive radioligand binding assay (125I-GnRH-A, HEK 293 cell membranes). To be noted: compound at 10 μM. The procedure, abridged: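 Membranes from HEK 293 cells stably expressing human GnRH receptor (0.5–1.0 mg/mL) incubated 1 h at room temperature with ~0.05–0.1 nM 125I-GnRH-A plus competitor in 50 mM HEPES pH 7.4, 1 mM EDTA, 2.5 mM MgCl2, 0.1% BSA. Bound label collected by filtration onto PEI-soaked filters and counted by scintillation.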

[1] abbreviates: average of 1st and 2nd test, read-out: Average % Remaining (percent of specific binding remaining).
[2] abbreviates: crude compounds, 125I-GnRH-A, lower value = higher inhibition, read-out: % Remaining 1st Test (percent of specific binding remaining).
Setting [3] is: crude compounds, 125I-GnRH-A, lower value = higher inhibition, read-out: % Remaining 2nd Test (percent of specific binding remaining).

`Cc1cc2c(cc1CN(CC1CCC(CNC(=N)N)CC1)C(=O)C1CCCC1)C(C)(C)CCC2(C)C` (stereo not drawn) [Compound 85]: the remaining activity at 10 µM under setting [1] came to 51%, the remaining activity at 10 µM under setting [2] was 52% and the remaining activity at 10 µM under setting [3] was 50%.
As for `N=C(N)NCC1CCC(CN(Cc2cc3c(cc2Cl)OCO3)C(=O)c2ccco2)CC1` (stereo not drawn) [Compound 86], the remaining activity at 10 µM by setting is: under setting [1], 51%; under setting [2], 56%; under setting [3], 45%.
As for `CCOc1cc(OCC)c(OCC)cc1CN(CC1CCC(CNC(=N)N)CC1)C(=O)c1ccco1` (stereo not drawn) [Compound 87], the remaining activity at 10 µM turned out to be 52% under setting [1], 57% under setting [2] and 47% under setting [3].
The corresponding values for `CCCCN(CCCC)c1ccc(CN(CC2CCC(CNC(=N)N)CC2)C(=O)c2ccco2)cc1` (stereo not drawn) [Compound 88] are 57%, 58% and 56%.
For the compound `CCOC(=O)C(=O)N(Cc1cc2c(cc1C)C(C)(C)CCC2(C)C)CC1CCC(CNC(=N)N)CC1` (stereo not drawn) [Compound 94], the remaining activity at 10 µM runs as follows: under setting [1], 57%; under setting [2], 61%; under setting [3], 52%.
The corresponding values for `Cc1cc2c(cc1CN(CC1CCC(CNC(=N)N)CC1)C(=O)c1c(C)noc1C)C(C)(C)CCC2(C)C` (stereo not drawn) [Compound 96] are 52%, 44% and 60%.
Taken in the same sequence, the figures for `Cc1cc2c(cc1CN(CC1CCC(CNC(=N)N)CC1)C(=O)c1ccc(C#N)cc1)C(C)(C)CCC2(C)C` (stereo not drawn) [Compound 98] were 58%, 58% and 58%.
Taken in the same sequence, the figures for `COC(=O)CCCCCC(=O)N(Cc1cc2c(cc1C)C(C)(C)CCC2(C)C)CC1CCC(CNC(=N)N)CC1` (stereo not drawn) [Compound 100] were 55%, 52% and 58%.
For the compound `Cc1cc2c(cc1CN(CC1CCC(CNC(=N)N)CC1)C(=O)Cc1ccccc1)C(C)(C)CCC2(C)C` (stereo not drawn) [Compound 102], the remaining activity at 10 µM is, setting by setting: under setting [1], 60%; under setting [2], 66%; under setting [3], 54%.
As for `Cc1cc(C(=O)N(Cc2cc3c(cc2C)C(C)(C)CCC3(C)C)CC2CCC(CNC(=N)N)CC2)n(C(C)(C)C)n1` (stereo not drawn) [Compound 105], the remaining activity at 10 µM runs as follows: under setting [1], 56%; under setting [2], 56%; under setting [3], 56%.
Consider `CCCCC(CC)C(=O)N(Cc1cc2c(cc1C)C(C)(C)CCC2(C)C)CC1CCC(CNC(=N)N)CC1` (stereo not drawn) [Compound 117], for which the remaining activity at 10 µM is, setting by setting: under setting [1], 57%; under setting [2], 59%; under setting [3], 54%.
The corresponding values for `Cc1cc2c(cc1CN(CC1CCC(CNC(=N)N)CC1)C(=O)c1cnn(-c3ccccc3)c1C(F)(F)F)C(C)(C)CCC2(C)C` (stereo not drawn) [Compound 118] are 60%, 62% and 58%.
Taken in the same sequence, the figures for `CC(=O)O[C@@H](C)C(=O)N(Cc1cc2c(cc1C)C(C)(C)CCC2(C)C)CC1CCC(CNC(=N)N)CC1` (stereo partly drawn) [Compound 119] were 57%, 57% and 57%.

Source of the values: patent publication US6646137B1, “Non-peptide GnRH agents” (priority 1998, dated 2003).
